As a reminder, the EC50 is the midpoint of the concentration-response curve.

Each structure is given as a SMILES string.

Test [1] relates to Mouse lymphoma EL4 cells transfected with RORγt plasmid. As to the kind of experiment: Determination of the activation rate on mouse lymphoma EL4 (IL-17 generation). The test is classed as cell-based. Particulars: compound at 2 μM, 24 hours, PMA/ionomycin stimulation 4 hours, flow cytometry, read-out: +act % (activation of IL-17 generated by EL4 cells). As for the experimental part: Determination of the Activation Rate on Mouse Lymphoma EL4
Mouse lymphoma EL4 cells transfected with RORγt plasmid were cultured at 37° C. under an atmosphere with 5% CO2, with a test compound added simultaneously. After 24 hours, the generation efficiency of IL-17A was analyzed. Before collection of cells, PMA at 50 ng/mL and ionomycin at 500 ng/mL were added for stimulation for 4 hours. The proportion of IL-17 was detected by intracellular staining and flow cytometry. […] The activation rate of IL-17 generated by EL4 cells for the compound was measured at a concentration of 2 μM.
(In general: In flow cytometry, cells or beads pass a laser one at a time.)

Test [2] addresses T1, RORγ receptor (B-RORγ LBD / Bioin-SRC1) (Homo sapiens, UniProt P51449).
T1 construct: 40 nM B-RORγ LBD solution
T1 sequence (P51449 269-508 limits assumed): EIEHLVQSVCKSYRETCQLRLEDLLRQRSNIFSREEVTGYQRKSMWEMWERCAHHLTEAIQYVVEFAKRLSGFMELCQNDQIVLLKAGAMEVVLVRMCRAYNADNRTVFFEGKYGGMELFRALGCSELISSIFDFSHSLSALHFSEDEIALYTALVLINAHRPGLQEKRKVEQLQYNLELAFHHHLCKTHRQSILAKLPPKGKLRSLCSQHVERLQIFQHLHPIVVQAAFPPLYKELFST
T1 sequence (Q15788 676-700 partner limits assumed): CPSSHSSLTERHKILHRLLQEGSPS
As to the kind of experiment: Determination of agonistic activities on RORγ receptors in vitro (dual FRET). The test is classed as biochemical. The conditions noted are these: average of at least two independent experiments. As for the experimental part:
Determination of Agonistic Activities of Compounds on RORγ Receptors In Vitro The agonistic activities of compounds described herein on RORγ receptor were determined by dual fluorescence resonance energy transfer (dual FRET) experiments. The agonistic activity was expressed by half maximum effect concentration (EC50).
1) Preparation of RORγ Assay Buffer
100 mL of buffer solution was well mixed with […] DTT for use.
2) Preparation of Solutions of Compounds
3) Preparation of protein mixtures a) 40 nM B-RORγ LBD solution was mixed well with 20 nM SA-APC solution and incubated for 15 minutes at room temperature. Then the resulting mixture was further mixed well with 400 nM Biotin and incubated for another 10 minutes at room temperature. […]
b) 40 nM Bioin-SRC1 solution was mixed well with 10 nM SA-eu solution and was incubated for 15 minutes at room temperature. Then the resulting mixture was further mixed well with 200 nM Biotin and was incubated for another 10 minutes at room temperature. […]
d) A mixture (25 μL) of B-RORγ LBD/SA-APC and Bioin-SRC1/SA-eu together with a test compound was added to one of the wells of a 384-well plate, and then the plate was centrifuged for one minute at 1000 rpm, and incubated at room temperature for one hour. The data were read on an Envision microplate detector and EC50 values were calculated.

The test system of test [3] is Mouse spleen CD4+T cells differentiated into Th17 cells. As to the kind of experiment: Mouse Th17 cell differentiation, half-maximal effect concentration. The test is classed as cell-based. Particulars: 96 hours, proportion of IL-17 by intracellular staining and flow cytometry. As for the experimental part:
Determination of the Half-Maximal Effect Concentration of Mouse Th17 Cell Differentiation
Experimental methods: Mouse spleen CD4^+T cells were separated and differentiated into Th17 cells. CD4^+T cells were cultured in the environment containing anti-CD3 (0.25 μg/mL), anti-CD28 (1 μg/mL), anti-IL4 (2 μg/mL), anti-IFN-γ (2 μg/mL), TGF-β (5 ng/mL), and IL6 (20 ng/mL), with a test compound added at the same time. After 96 hours, the differentiation efficiency of Th17 was analyzed. Before collection of cells, PMA at 50 ng/mL and ionomycin at 500 ng/mL were added for stimulation for 4 hours, and the proportion of IL-17 was detected by intracellular staining and flow cytometry. Meanwhile, we used Live/Dead Cell Dye (Invitrogen) staining method to analyze the cell survival rate and to judge whether the drug had toxicity to cells, and determined the half-maximal effect concentration EC50 of the compounds.

With `CC(C)Cc1ccc(-c2c(Cl)cc(NC(=O)Cc3ccccc3C#N)cc2Cl)cc1C#N` [Example 11, 2-(2-Cyanophenyl)-N-(2,6-dichloro-3′-cyano-4′-isobutyl-[1,1′-biphenyl]-4-yl)acetamide], in test [1], the activation at 2 µM was less than 20%. Further, in test [2], the EC50 fell in the range of 10 to 50 nM.

On to `CC(C)Cc1ccc(-c2c(Cl)cc(NC(=O)Cc3ccccn3)cc2Cl)cc1C#N` [Example 13, N-(2,6-Dichloro-3′-cyano-4′-isobutyl-[1,1′-biphenyl]-4-yl)-2-(pyridin-2-yl)acetamide], for which, in test [1], the activation at 2 µM is less than 20%. Also, the EC50 in test [2] fell in the range of 10 to 50 nM.

With `CCS(=O)(=O)c1ccc(CC(=O)Nc2cc(Cl)c(-c3ccc(CC(C)C)c(C#N)c3)c(Cl)c2)cc1` [Example 16, N-(2,6-Dichloro-3′-cyano-4′-isobutyl-[1,1′-biphenyl]-4-yl)-2-(4-(ethylsulfonyl)phenyl)acetamide], the activation at 2 µM in test [1] is more than 50%. Further, the results for the concentration giving a half-maximal response (EC50) in test [2] and in test [3] were 10 to 50 nM and less than 50 nM, respectively.

Consider `CC(C)Cc1ccc(-c2c(Cl)cc(NC(=O)Cc3ccc(S(C)(=O)=O)cc3)cc2Cl)cc1C#N` [Example 17, N-(2,6-Dichloro-3′-cyano-4′-isobutyl-[1,1′-biphenyl]-4-yl)-2-(4-(methylsulfonyl)phenyl)acetamide], for which the activation at 2 µM in test [1] is more than 50%. Also, the EC50 in test [2] was 10 to 50 nM; in test [3], less than 50 nM.

As to `CCS(=O)(=O)c1ccc(CC(=O)Nc2cc(Cl)c(-c3ccc(CC(C)C)c(C#N)c3)c(Cl)c2)nc1` [Example 19, N-(2,6-Dichloro-3′-cyano-4′-isobutyl-[1,1′-biphenyl]-4-yl)-2-(5-(ethylsulfonyl)pyridin-2-yl)acetamide], the activation at 2 µM in test [1] is 20 to 50%. This molecule yielded an EC50 in test [3] of 50 to 150 nM.

With `CC(C)Cc1ccc(-c2c(Cl)cc(NC(=O)Cc3ccc(S(C)(=O)=O)cn3)cc2Cl)cc1C#N` [Example 20, N-(2,6-dichloro-3′-cyano-4′-isobutyl-[1,1′-biphenyl]-4-yl)-2-(5-(methylsulfonyl)pyridin-2-yl)acetamide], the activation at 2 µM in test [1] is more than 50%. Moreover, the EC50 was 10 to 50 nM in test [2] and more than 150 nM in test [3].

Consider `CC(C)Cc1ccc(-c2c(Cl)cc(NC(=O)Cc3ccc(S(N)(=O)=O)cc3)cc2Cl)cc1C#N` [Example 21, N-(2,6-Dichloro-3′-cyano-4′-isobutyl-[1,1′-biphenyl]-4-yl)-2-(4-sulfamoylphenyl)acetamide], for which, in test [1], the activation at 2 µM lay within 20 to 50%. Moreover, the figures for the EC50 in test [2] and in test [3] were less than 10 nM and less than 50 nM, respectively.

With `CC(C)Cc1ccc(-c2c(Cl)cc(NC(=O)Cc3ccc(C(=O)O)cc3)cc2Cl)cc1C#N` [Example 24, 4-(2-((2,6-Dichloro-3′-cyano-4′-isobutyl-[1,1′-biphenyl]-4-yl)amino)-2-oxoethyl)benzoic acid], the activation at 2 µM in test [1] was less than 20%. The EC50 in test [2] is less than 10 nM.

For `CCS(=O)(=O)c1ccc(CC(=O)Nc2cc(Cl)c(-c3ccc(CC(C)C)cc3)c(Cl)c2)cc1` [Example 26, N-(2,6-Dichloro-4′-isobutyl-[1,1′-biphenyl]-4-yl)-2-(4-(ethylsulfonyl)phenyl)acetamide], in test [1], the activation at 2 µM was less than 20%. The EC50 in test [2] fell in the range of 10 to 50 nM.

Regarding `CCS(=O)(=O)c1ccc(CC(=O)Nc2cc(Cl)c(-c3ccc(OC(C)C)c(C#N)c3)c(Cl)c2)cc1` [Example 32, N-(2,6-Dichloro-3′-cyano-4′-isopropoxy-[1,1′-biphenyl]-4-yl)-2-(4-(ethylsulfonyl)phenyl)acetamide], the EC50 in test [3] was less than 50 nM.

As for `CCN(CC)Cc1ccc(-c2c(Cl)cc(NC(=O)Cc3ccc(S(C)(=O)=O)cc3)cc2Cl)cc1C#N` [Example 33, N-(2,6-Dichloro-3′-cyano-4′-((diethylamino)methyl)-[1,1′-biphenyl]-4-yl)-2-(4-(methylsulfonyl)phenyl)acetamide], the activation at 2 µM in test [1] lay in the range of 20 to 50%. The EC50 in test [2] is 10 to 50 nM.

On to `CN(C)Cc1ccc(-c2c(Cl)cc(NC(=O)Cc3ccc(S(C)(=O)=O)cc3)cc2Cl)cc1C#N` [Example 34, N-(2,6-Dichloro-3′-cyano-4′-((dimethylamino)methyl)-[1,1′-biphenyl]-4-yl)-2-(4-(methylsulfonyl)phenyl)acetamide], for which the activation at 2 µM in test [1] is more than 50%. In test [2], this molecule gave an EC50 of 10 to 50 nM.

Take `CCN(C)Cc1ccc(-c2c(Cl)cc(NC(=O)Cc3ccc(S(=O)(=O)CC)cc3)cc2Cl)cc1C#N` [Example 36, N-(2,6-Dichloro-3′-cyano-4′-((ethyl(methyl)amino)methyl)-[1,1′-biphenyl]-4-yl)-2-(4-(ethylsulfonyl)phenyl)acetamide]: in test [1], the activation at 2 µM was more than 50%. Moreover, the EC50 in test [2] is 10 to 50 nM; in test [3], more than 150 nM.

Consider `CCN(CC)Cc1ccc(-c2c(Cl)cc(NC(=O)Cc3ccc(S(=O)(=O)CC)cc3)cc2Cl)cc1C#N` [Example 37, N-(2,6-Dichloro-3′-cyano-4′-((diethylamino)methyl)-[1,1′-biphenyl]-4-yl)-2-(4-(ethylsulfonyl)phenyl)acetamide], for which, in test [1], the activation at 2 µM lay within 20 to 50%. The EC50 in test [2] lay within 10 to 50 nM.

In test [3], `CCC(C)Cc1ccc(-c2c(Cl)cc(NC(=O)Cc3ccc(S(=O)(=O)CC)cc3)cc2Cl)cc1C#N` (centres unmarked) [Example 41, N-(2,6-Dichloro-3′-cyano-4′-(2-methylbutyl)-[1,1′-biphenyl]-4-yl)-2-(4-(ethylsulfonyl)phenyl)acetamide] returned an EC50 of more than 150 nM.

`CCS(=O)(=O)c1ccc(CC(=O)Nc2cc(Cl)c(-c3ccc(CC4CCC4)c(C#N)c3)c(Cl)c2)cc1` [Example 43, (N-(2,6-Dichloro-3′-cyano-4′-(cyclobutylmethyl)-[1,1′-biphenyl]-4-yl)-2-(4-(ethylsulfonyl)phenyl)acetamide)] registered an EC50 in test [3] of 50 to 150 nM.

With `CCS(=O)(=O)c1ccc(CNC(=O)c2cc(Cl)c(-c3ccc(CC(C)C)c(C#N)c3)c(Cl)c2)nc1` [Example 49, 2,6-Dichloro-3′-cyano-N-((5-(ethylsulfonyl)pyridin-2-yl)methyl)-4′-isobutyl-[1,1′-biphenyl]-4-carboxamide], the activation at 2 µM in test [1] was less than 20%. Besides, in test [2], the EC50 is 50 to 100 nM.

Turning to `CCS(=O)(=O)c1ccc(CNC(=O)Nc2cc(Cl)c(-c3ccc(CC(C)C)c(C#N)c3)c(Cl)c2)nc1` [Example 55, 1-(2,6-Dichloro-3′-cyano-4′-isobutyl-[1,1′-biphenyl]-4-yl)-3-((5-(ethylsulfonyl)pyridin-2-yl)methyl)urea], the activation at 2 µM in test [1] lay within 20 to 50%. Moreover, the half-maximal effective concentration (EC50) in test [2] lay in the range of 10 to 50 nM.

For the molecule `CCS(=O)(=O)c1ccc(CNC(=O)Nc2cc(Cl)c(-c3ccc(CN(C)C)c(C#N)c3)c(Cl)c2)cc1` [Example 58, 1-(2,6-Dichloro-3′-cyano-4′-((dimethylamino)methyl)-[1,1′-biphenyl]-4-yl)-3-(4-(ethylsulfonyl)benzyl)urea], the activation at 2 µM in test [1] was 20 to 50%. This molecule also displayed an EC50 in test [2] of 10 to 50 nM.

On to `CCS(=O)(=O)c1ccc(CCNc2cc(Cl)c(-c3ccc(CC(C)C)c(C#N)c3)c(Cl)c2)cc1` [Example 60, 2′,6′-Dichloro-4′-((4-(ethylsulfonyl)phenethyl)amino)-4-isobutyl-[1,1′-biphenyl]-3-carbonitrile], for which the activation at 2 µM in test [1] lay within 20 to 50%. The molecule also had an EC50 in test [2] of 10 to 50 nM.

`CCS(=O)(=O)c1ccc(CCNc2cc(Cl)c(-c3ccc(CN(C)C)c(C#N)c3)c(Cl)c2)cc1` [Example 62, 2′,6′-Dichloro-4-((dimethylamino)methyl)-4′((4-(ethylsulfonyl)phenethyl)amino)-[1,1′-biphenyl]-3-carbonitrile]: the activation at 2 µM in test [1] was in the range of 20 to 50%. The half-maximal effective concentration (EC50) in test [2] was less than 10 nM.

The record behind these values is patent US10844017B2, “Biaryl compound, preparation method and use thereof” (FUDAN UNIVERSITY, priority 2017, dated 2020).
